Laboratory results taken from patent US7759346B2, “[[2-(amino-3,4-dioxo-1-cyclobuten-1-yl)amino]alkyl]-acid derivatives for the treatment of pain” (priority 2001, dated 2010).
Read-outs that look alike come from different tables or passages of the source.

Legend:
[1] = tested on: rats trained to discriminate between saline and PCP; assay: PCP-like discriminative stimulus effects (substitution for PCP); assay type: in vivo
Spraque-Dawley rats [2] = assay type: in vivo, rat
Experimental: (§1) The terminal 10 cm of the tail was placed into a thermos bottle containing water warmed to 38, 42, 46, 50, 54, or 58° C. The latency in seconds for the animal to remove the tail from the water was used as a measure of nociception.
(§2) Following the assessment of baseline thermal sensitivity, thermal hypersensitivity was produced by a 50 μL injection of 0.1 mg prostaglandin E2 (PGE2) into the terminal 1 cm of the tail. Temperature-effect curves were generated before (baseline) and after (15, 30, 60, 90 and 120 min) the PGE2 injection.
Compounds were administered IP at the same time as PGE2, which was administered 30 min before testing.
(§3) Test Method 1 Data Analysis—The temperature that produced a half-maximal increase in the tail-withdrawal latency (i.e., T10) was calculated from each temperature-effect curve. The T10 was determined by interpolation from a line drawn between the point above and the point below 10 sec on the temperature-effect curve. For these studies, thermal hypersensitivity was defined as a leftward shift in the temperature-effect curve and a decrease in the T10 value. Reversal of thermal hypersensitivity was defined as a return to baseline of the temperature-effect curve and the T10 value and was calculated according to the following equation: […]

Spraque-Dawley rats [3] = assay: Observable signs of sedation and ataxia
Spraque-Dawley rats [4] = assay: Chronic Constriction Injury-induced tactile hypersensitivity (von Frey); assay type: in vivo, rat; settings: IP, one week after CCl surgery
Source text: Rats were anesthetized with 3.5% halothane in O2 at 1 L/min and maintained with 1.5% halothane in O2 during surgery. A modified chronic sciatic nerve constriction injury (Mosconi & Kruger, 1996; Bennett & Xie, 1988) was produced by a cutaneous incision and a blunt dissection through the biceps femoris to expose the sciatic nerve. A PE 90 Polyethylene tubing (Intramedic, Clay Adams; Becton Dickinson Co.) cuff (2 mm length) was placed around the sciatic nerve at the level of the mid-thigh. The wound was closed in layers using 4-0 silk suture and wound clips. Testing was conducted 6-10 days after surgery.
Animals were placed in elevated wire cages and allowed 45-60 minutes to acclimate to the testing room. Baseline tactile sensitivity was assessed using a series of calibrated von Frey monofilaments (Stoelting; Wood Dale, Ill.) 0-3 days before surgery. Von Frey monofilaments were applied to the mid-plantar hind paw in sequential ascending or descending order, as necessary, to hover as closely as possible to the threshold of responses. The threshold was indicated by the lowest force that evoked a brisk withdrawal response to the stimuli. Thus, a withdrawal response led to the presentation of the next lighter stimulus and the lack of a withdrawal response led to the presentation of the next stronger stimulus. Rats with baseline thresholds <10 g force were excluded from the study. […] Under cumulative dosing conditions, compounds were administered IP every 30 minutes with the cumulative dose increasing in ½ log unit increments. Tactile hypersensitivity was assessed 20-30 minutes following each drug administration.
Test Method 2 Data Analysis—The 50% threshold values (in gm force) estimated by the Dixon non-parametric test (Chaplan et al, 1994) was calculated and fifteen-grams of force was used as the maximal force. Dose-effect curves were generated for each experimental condition for each rat. Individual tactile hypersensitivity threshold values were averaged to provide a mean (±1 SEM). Reversal of tactile hypersensitivity was defined as a return to baseline tactile sensitivity and was calculated according to the following equation:
(§4) [formula] in which 50%^drug+CCl is the 50% value after compound in animals approximately one week after CCl surgery, 50%^CCl is the 50% value approximately one week after CCl surgery alone, and 50%^baseline is the 50% value before CCl surgery. Maximal effect of 100% reversal represents a return to the mean pre-operative threshold value for subjects in that experimental condition. Test Method 3: Scheduled-Controlled Responding.

Spraque-Dawley rats [5] = assay: Scheduled-controlled responding (operant responding, food presentation)
Source text: as §4
Rats were trained under a multiple-cycle procedure during experimental sessions conducted five days each week. Each training cycle consisted of a 1-min pretreatment period followed by a 10-min response period. During the pretreatment period, stimulus lights were not illuminated, and responding had no scheduled consequences. During the response period, the left or right stimulus lights were illuminated (counterbalanced among subjects), the response lever was extended and subjects could respond under a fixed ratio 30 schedule of food presentation. Training sessions consisted of 3 consecutive cycles. Testing sessions were identical to training sessions except that a single dose of drug was administered at the start of the first cycle.
Data analysis. Operant response rates from individual animals were averaged for the three cycles during test sessions and were converted to percent of control response rates using the average rate from the previous training day as the control value (i.e., average of three cycles). Data are presented as the mean (±1 SEM) response rate as a percent of control.

[6] = tested on: cingulate and retrosplenial cortices of mice and rats; assay: Induction of vacuoles (vacuolization) versus behaviorally effective doses; settings: in vivo
[7] = PCP-like effects relative to doses effective in an ischemia model; settings: in vivo
Spraque-Dawley rats [8] = assay: Warm-water tail withdrawal combination studies with morphine; assay type: in vivo, rat; settings: 10.0 mg/kg IP, 30 min before testing
Experimental: as §1
Combination compound studies. […] Compounds were administered IP at the same time 30 min before testing.
as §3

Spraque-Dawley rats [9] = assay: Prostaglandin E2-induced thermal hypersensitivity, warm-water tail withdrawal, single compound studies; assay type: in vivo, rat; settings: given 30 min before PGE2
Experimental: Ketamine and dizocilpine are high affinity use-dependent NMDA receptor channel blockers, while memantine is a moderate affinity use-dependent NMDA receptor channel blocker. CGS-19755 is a competitive NMDA antagonist and ifenprodil is a […] polyamine antagonist. Test Method 1: Prostaglandin E2-Induced Thermal Hypersensitivity.
as §1, §2
Single compound studies. The ability of drugs to reverse PGE2-induced thermal hypersensitivity was assessed using a single dose time-course procedure. Under this procedure, a single dose of the compound to be tested was administered intraperitoneally (IP), orally (PO) or intranasally (IN) 30 min before the injection of PGE2. […] sensitivity was assessed 30 min after PGE2 injection.
Test Method 1 Data Analysis—The temperature that produced a half-maximal increase in the tail-withdrawal latency (i.e., T10) was calculated from each temperature-effect curve. The T10 was determined by interpolation from a line drawn between the point above and the point below 10 sec on the temperature-effect curve. For these studies, thermal hypersensitivity was defined as a leftward shift in the temperature-effect curve and a decrease in the T10 value. Reversal of thermal hypersensitivity was defined as a return to baseline of the temperature-effect curve and the T10 value and was calculated according to the following equation:
[formula] in which T10^drug+PGE2 is the T10 after a drug in combination with PGE2, T10^PGE2 is the T10 after PGE2 alone, and T10^baseline is the T10 under control conditions. A % MPE value of 100 indicates a complete return to the baseline thermal sensitivity observed without the PGE2 injection. […] Test Method 2: Chronic Constriction Injury

O=c1c2c(c1=O)N(CCP(=O)(O)O)CCCN2 [Compound A, [2-(8,9-Dioxo-2,6-diazabicyclo[5.2.0]non-1(7)-en-2-yl)ethyl]phosphonic acid]
substitution for PCP [1]: did not substitute for PCP | Change from Baseline (T10) (Spraque-Dawley rats [2]; 10.0 mg/kg IP with PGE2, PGE2 + vehicle −5.6): −1.5 | T10 (temperature producing half-maximal tail-withdrawal latency) (Spraque-Dawley rats [2]; 10 mg/kg IP with PGE2, PGE2 alone 44.8±0.1, vehicle 50.3±0.4): 48.8±0.2 | ataxia or sedation (Spraque-Dawley rats [3]; at doses needed to relieve pain in preclinical models): did not produce ataxia or sedation | sedation or ataxia (Spraque-Dawley rats [3]; doses effective in PGE2 test (as high as 178 mg/kg)): not associated with sedation or ataxia | sedation or ataxia (Spraque-Dawley rats [3]; doses used in the CCl-induced tactile hypersensitivity study, IP): not associated with sedation or ataxia | % Reversal of CCl-induced tactile hypersensitivity (Spraque-Dawley rats [4]; cumulative dose 1 mg/kg): 13% | % Reversal of CCl-induced tactile hypersensitivity (Spraque-Dawley rats [4]; cumulative dose 3 mg/kg): 45% | % Reversal of CCl-induced tactile hypersensitivity (Spraque-Dawley rats [4]; cumulative dose 10 mg/kg, 10 mg/kg): 97% | Operant responding: response rate as a percent of control (Spraque-Dawley rats [5]; IP, 3 mg/kg): 111% | Operant responding: response rate as a percent of control (Spraque-Dawley rats [5]; IP, 10 mg/kg): 86% | Operant responding: response rate as a percent of control (Spraque-Dawley rats [5]; PO, 10 mg/kg): 112% | Operant responding: response rate as a percent of control (Spraque-Dawley rats [5]; PO, 30 mg/kg): 97% | Operant responding: response rate as a percent of control (Spraque-Dawley rats [5]; PO, 100 mg/kg): 100% | rates of responding (in words) (Spraque-Dawley rats [5]; schedule of food presentation, Compound A IP or PO at doses that reversed hypersensitivity): did not significantly modify rates of responding | effectiveness/vacuolization ratio [6]: ≤ 16 | devoid of many PCP-like effects up to doses times higher than those effective in an ischemia model [7]: 4-10 | Change from Baseline (T10) (Spraque-Dawley rats [8]): −0.3 | % MPE (reversal of PGE2-induced thermal hypersensitivity) (Spraque-Dawley rats [9]; IP, 1 mg/kg): −7% | % MPE (reversal of PGE2-induced thermal hypersensitivity) (Spraque-Dawley rats [9]; IP, 3 mg/kg): 66% | % MPE (reversal of PGE2-induced thermal hypersensitivity) (Spraque-Dawley rats [9]; IP, 10 mg/kg, 10 mg/kg): 79% | % MPE (reversal of PGE2-induced thermal hypersensitivity) (Spraque-Dawley rats [9]; PO, 10 mg/kg): 5% | % MPE (reversal of PGE2-induced thermal hypersensitivity) (Spraque-Dawley rats [9]; PO, 30 mg/kg): 23% | % MPE (reversal of PGE2-induced thermal hypersensitivity) (Spraque-Dawley rats [9]; PO, 100 mg/kg, 100 mg/kg): 87%
